Data taken from US9173893B2, “Purine nucleoside monophosphate prodrugs for treatment of cancer and viral infections” (Cocrystal Pharma, Inc., priority 2009, dated 2015).
“Also recorded” adds a separate entry of the source. Read-outs that look alike come from different tables or passages of the source. Blank lines part the entries; values can stand above or below the molecule they belong to.

Columns and labels:
[1] = tested on: adenosine deaminase; assay: Adenosine deaminase assay (deamination of nucleosides); type: in vitro ADME
Method: To determine the propensity for deamination of the 6-substituted-2-amino purine nucleoside monophosphate prodrugs by adenosine deaminase, nucleoside compounds were incubated with the commercially available purified enzyme, and the reaction was followed spectrophotometrically. Reaction conditions were 50 mM potassium phosphate, pH 7.4, with 50 μM nucleoside analog in 0.5 mL at 25° C. Reaction time was 7 minutes with 0.002 units of enzyme and 120 minutes with 0.2 units of enzyme. (The unit definition of adenosine deaminase is one unit will deaminate 1.0 μmol of adenosine to inosine per minute at pH 7.5 at 25° C.) Deoxyadenosine was the positive control which was 59% deaminated under the given conditions in 7 minutes with 0.002 units of enzyme. Deoxyguanosine was the negative control. Optical density was measured at 265 nm or 285 nm. The difference in optical density between the beginning and the end of the experiment was divided by the extinction coefficient then multiplied by the volume of the reaction to determine the number of mols of substrate transformed into product. Mols of product were divided by mols of substrate equivalent to a 100% complete reaction then multiplied by 100 to obtain percent deamination. The limit of detection was 0.001 optical density units.

[2] = tested on: MT-2 cells; assay: Analysis of intracellular nucleotides formed in MT-2 cells; type: in vitro ADME
[3] = tested on: human peripheral blood mononuclear (PBM) cells; assay: LC/MS analysis of nucleotides formed after incubation in PBM cells; type: in vitro ADME; conditions: for nucleosides/nucleotides detected by LC/MS / species not detected by LC/MS: 50 μM
[4] = tested on: CEM (human lymphoblastoid) cells; assay: Cytotoxicity assay in CEM cells; conditions: Lymphoblastoid cell, read-out: CEM IC50
[5] = tested on: Vero cells; assay: Cytotoxicity assay in Vero cells; conditions: Chlorocebus sabaeus, read-out: Vero IC50
[6] = tested on: CEM cells; conditions: previous study; cited from earlier work
[7] = tested on: HIV-1LAI; assay: Anti-HIV (in PBM cells) assay; type: cell-based; conditions: Human immunodeficiency virus 1, PBMC; for EC50: read-out: HIV EC50; for EC90: read-out: HIV EC90
Method: Stock solutions (20-40 mM) of the compounds were prepared in sterile DMSO and then diluted to the desired concentration in growth medium. Cells were infected with the prototype HIV-1LAI at a multiplicity of infection of 0.01. Virus obtained from the cell supernatant was quantified on day 6 after infection by a reverse transcriptase assay using (rA)n·(dT)12-18 as template-primer. The DMSO present in the diluted solution (<0.1%) had no effect on the virus yield. AZT was included as positive control.

[8] = tested on: PHA-stimulated human PBMCs; conditions: cited from earlier work
[9] = tested on: human PBM cells; assay: Cytotoxicity assay in PBM cells
[10] = tested on: HepG2 cells; conditions: HepG2 cells incubated with 10 μM; cited from earlier work
[11] = human PBM cells, RS-788 n = 3, RS-864 n = 2
[12] = 50 μM nucleoside analog, 50 mM potassium phosphate pH 7.4, 25° C.

Structure (SMILES): [N-]=[N+]=N[C@H]1C[C@H](n2cnc3c(=O)[nH]c(N)nc32)O[C@@H]1CO [AZG]
concentration at which phosphorylation reaches steady state ([2]; MT-2, four different concentrations): 30 µM

Structure (SMILES): Nc1nc(N)c2ncn([C@H]3CO[C@@H](CO)O3)c2n1 [DAPD, (−)-β-D-2,6-diaminopurine dioxolane, reference compound]
IC50 [4]: > 100 µM | IC50 [5]: > 100 µM | intracellular metabolism [6]: readily deaminate to (−)-D-dioxolane guanine (DXG); also recorded: No phosphorylation of DAPD to the corresponding mono-, di-, or triphosphate forms was detected | EC50 [7, 11]: 1 µM | EC90 [7, 11]: 6.5 µM | DAPD levels in PBMCs relative to CEM cells ([8]; Antimicrob. Agents Chemother. 2001, 45, 158-165): 27 fold | intracellular metabolism ([8]; PHA-stimulated human PBMCs, previous study): readily deaminate to (−)-D-dioxolane guanine (DXG); also recorded: No phosphorylation of DAPD to the corresponding mono-, di-, or triphosphate forms was detected | IC50 ([9]; Homo sapiens, PBMC, read-out: PBM IC50): > 100 µM

Structure (SMILES): O=c1[nH]c(=O)n([C@@H]2O[C@H](CO)[C@@H](O)[C@@H]2F)cc1I [fialuridine, 1,2′-deoxy-2′-fluoro-1-D-arabinofuranosly-5-iodo-uracil]
mitochondrial morphology in electron micrographs [10]: enlarged mitochondria with morphological changes consistent with mitochondrial dysfunction

Structure (SMILES): CCOC(=O)[C@H](C)NP(=O)(OC[C@@H]1OC[C@H](n2cnc3c(N)nc(N)nc32)O1)Oc1ccccc1 (stereo partly shown) [RS-864]
IC50 [4]: > 100 µM | IC50 [5]: > 100 µM | EC50 [7]: 0.24 µM | EC90 [7]: 1.3 µM | PBM IC50 printed as percent at a single concentration ([9]; @ 100 μM): 66.5% @ 100 μM | nucleosides/nucleotides detected by LC/MS ([3]; PBM cells, 4 hr incubation): low levels of DXG, DXG-MP, and DXG-TP; also recorded: very high levels of DAPD-TP; also recorded: low levels of DAPD, DAPD-MP, DAPD-DP

Continued, in another order:

Conversion to the G analog by / stability to adenosine deaminase ([1]; under the conditions tested): stable to adenosine deaminase
Structure (SMILES): CN(C)c1nc(N)nc2c1ncn2[C@H]1CC(N=[N+]=[N-])[C@@H](CO)O1 (stereo partly shown) [Compound 69]

nucleosides/nucleotides detected by LC/MS ([3]; human, 4 h): RFS-506-DP, RFS-457-DP, and RFS-457-TP
Structure (SMILES): COc1nc(N)nc2c1ncn2[C@H]1CC(N=[N+]=[N-])[C@@H](CO)O1 (stereo partly shown) [Compound 70]
species not detected by LC/MS ([3]; human, 4 h): No RFS-506, RFS-506-MP, or RFS-506-TP were detected

nucleosides/nucleotides detected by LC/MS ([3]; human, 4 h): RFS-457-DP and RFS-457-TP
Structure (SMILES): C=CCNc1nc(N)nc2c1ncn2[C@H]1CC(N=[N+]=[N-])[C@@H](CO)O1 (stereo partly shown) [Compound 62]
species not detected by LC/MS ([3]; human, 4 h): No RFS-427, RFS-427-MP, RFS-427-DP, or RFS-427-TP were detected

level of unchanged drug detected ([2]; MT-2 cells treated with drug for 30 min): Negligible levels of 6415 | nucleosides/nucleotides detected ([2]; MT-2 cells, 50 μM, 4 hr): converted to AZG and AZG-TP | AZG-TP levels compared with AZG treatment ([2]; MT-2 cells, 4 hr at 50 μM): higher | Deamination in 7 min (0.002 units Adenosine Deaminase) [1, 12]: 12.81 ± 1.57% | Deamination in 120 min (0.2 units Adenosine Deaminase) [1, 12]: 240.53 ± 5.86% | AZG-TP levels compared with AZG treatment ([3]; PBM cells, 4 hr at 50 μM): higher | nucleosides/nucleotides detected by LC/MS ([3]; human, 4 h): RFS-457-TP
Structure (SMILES): [N-]=[N+]=NC1C[C@H](n2cnc3c(Cl)nc(N)nc32)O[C@@H]1CO (stereo partly shown) [Compound 6415]
species not detected by LC/MS ([3]; human, 4 h): Neither Compound 6415 nor its phosphates were detected

nucleosides/nucleotides detected by LC/MS ([3]; human, 4 h): RFS-457-DP and RFS-457-TP
Structure (SMILES): [N-]=[N+]=NC1C[C@H](n2cnc3c(NC4CC4)nc(N)nc32)O[C@@H]1CO (stereo partly shown) [Compound 72]
species not detected by LC/MS ([3]; human, 4 h): No RFS-512, RFS-512-MP, RFS-512-DP, or RFS-512-TP were detected
